Laboratory results published in article PMC5423977, “Safety, pharmacokinetics, and pharmacodynamics of BMS-986142, a novel reversible BTK inhibitor, in healthy participants” (European Journal of Clinical Pharmacology, 2017).
Read-outs that look alike come from different tables or passages of the source.

What was measured:
[1] = Plasma pharmacokinetics of BMS-986142, SAD; assay type: in vivo; conditions: human, oral; for AUC(0-t): n = 6, read-out: AUC(0-T) geometric mean (%CV); for Cmax: n = 6, read-out: Cmax geometric mean (%CV)
Procedure: Eligible participants were confined to the clinical facility (WCCT Global, LLC, Cypress, CA) the day before dosing (day −1) and randomized to receive SAD or MAD treatment under fasting conditions for 10 h. In the SAD group, eight healthy non-Japanese participants were assigned to each of up to six sequential dose panels (single oral doses of 5, 15, 50, 100, 300, and 900 mg BMS-986142) or placebo. Within each dose panel, participants were randomized in a 3:1 ratio to receive BMS-986142 (n = 6) or placebo (n = 2). In the MAD group, eight healthy non-Japanese participants were assigned to each of four sequential dose panels (daily oral doses of 25, 75, 200, and 350 mg BMS-986142) or placebo. Within each dose panel, participants were randomized in a 3:1 ratio to receive once-daily (QD) doses of BMS-986142 or placebo from day 1 to day 14 (Online Resource 1). Escalation to the next dose level in SAD and MAD was conducted after safety assessment had been completed and the treatment was considered safe and well tolerated. Additionally, dose levels in MAD were selected not to exceed the steady-state exposure of BMS-986142 (AUC: 22,920 ng h/mL) at NOAEL in rats obtained from a 1-month GLP toxicology study.
(§1) Blood samples for the measurement of BMS-986142 were collected up to 168 h after dosing of BMS-986142 on day 1 for participants in SAD. In MAD, blood samples were collected up to 24 h on day 1 and up to 120 h on day 14 (the last day of treatment). Blood samples for the measurement of MTX were collected up to 48 h after dosing of MTX on days 1 and 8.
(§2) Plasma samples were analyzed for BMS-986142 levels with a validated method using liquid chromatography tandem mass spectrometry (LC-MS/MS) detection. The analyte was extracted from 50 μL of plasma using a liquid–liquid extraction method. Methyl tert-butyl ether was used as the extraction solvent. The lower limit of quantification (LLOQ) was 1.00 ng/mL in plasma. Plasma samples were analyzed for methotrexate levels using LC-MS/MS detection. Analytes were isolated from 50 μL plasma through solid phase extraction using Waters Oasis MAX, 10-mg, 96-well SPE plates. The final extract was analyzed using LC-MS/MS detection. LLOQ was 1.00 ng/mL in plasma. Detailed methodology quantitating the concentration level of BMS-986142 and MTX is provided in Online Resource 10.
(§3) Individual subject pharmacokinetic parameters for BMS-986142 and MTX were derived by a non-compartmental method using validated PK software (WinNonLin version 6.3; Pharsight Corporation, Mountain View, CA, USA). The following PK parameters for BMS-986142 and MTX were derived from plasma concentration versus time data: maximum observed plasma concentration (Cmax); minimum observed plasma concentration (Cmin); time to maximum observed plasma concentration (Tmax); area under the plasma concentration-time curve from time zero to the time of the last quantifiable concentration (AUC(0-T)), from time zero extrapolated to infinite time (AUC(inf)), and in one dosing interval (AUC(TAU)); terminal plasma half-life (T1/2); and AUC accumulation index (AI_AUC). AI_AUC was calculated to divide AUC(TAU) on day 14 by AUC(TAU) on day 1.
Summary statistics were tabulated for all PK parameters by treatment and study days. Geometric mean (Gmean) and coefficient of variation (CV) are presented for Cmax, AUC(0-T), AUC(inf), AI_AUC, Cmin, and AUC(TAU); arithmetic mean and standard deviation (SD) are presented for T1/2; and median and range are presented for Tmax. Dose proportionality was assessed using the previously described power model. Briefly, the simple linear regression was applied to the natural log of the PK parameters on the natural log of dose using the following equation (Eq. 1).1 ElogPKParameterDose=α+β∗logDose.
A slope (β) equal to 1 would indicate perfect dose proportionality. For each PK parameter (Cmax, AUC(0-T), AUC(TAU), and AUC(inf)), point estimates and 90% CI of the slopes were calculated.

CD69 expression = tested on: CD69 expression; set-up: method as in PMID 27583770; conditions: in vitro; read-out: IC50 of CD69 inhibition derived from in vitro evaluation; cited from earlier work
[2] = Effect of BMS-986142 on single-dose plasma PK of MTX (DDI); assay type: in vivo, human; conditions: BMS-986142 350 mg QD, MTX 7.5 mg single dose
Procedure: as §1, §2, §3
Statistical analyses were conducted to assess the effect of coadministration of BMS-986142 on the PK of MTX. For all treatment comparisons, a linear mixed-effect model was fitted to the log-transformed PK parameters Cmax, AUC(0-T), and AUC(inf). Point estimates and 90% CIs for differences on the log-scale were exponentiated to obtain estimates for geometric mean ratios (GMRs) and respective 90% CIs on the original scale. Sample size determination is based on consideration of the precision of the estimate of the GMRs of AUCs of MTX with and without BMS-986142. With 9 evaluable subjects, there will be an 80% probability that the 90% CI of AUC(INF) GMR will be within 89.9 to 111.2% of the point estimate. These precision estimates are based on an assumption that Cmax and AUC(INF) of MTX are log-normally distributed with intrasubject CV of 14.67 and 10.38%, respectively, as calculated from Namour et al..

[3] = tested on: collagen-induced arthritis model; conditions: combined with standard of care agents (e.g., MTX); cited from earlier work

Q: Which half-life ([1]; both sexes, 5 mg, at low dose levels, read-out: T1/2 (converted)) does the source give for `Cc1c(-c2c(F)cc(C(N)=O)c3[nH]c4c(c23)CC[C@H](C(C)(C)O)C4)cccc1-n1c(=O)c2cccc(F)c2n(C)c1=O` [BMS-986142, 6-fluoro-5-(R)-(3-(S)-(8-fluoro-1-methyl-2,4-dioxo-1,2-dihydroquinazolin-3(4H)-yl)-2-methylphenyl)-2-(S)-(2-hydroxypropan-2-yl)-2,3,4,9-tetrahydro-1H-carbazole-8-carboxamide] here?
A: Its half-life is ~7 h.

Q: And the half-life ([1]; both sexes, at therapeutic doses, read-out: Mean T1/2)?
A: The half-life was ≤ 11 h.

Q: And the half-life ([1]; both sexes, single dose, 5–900 mg dose range, read-out: Mean T1/2 (half-life), range over doses)?
A: Its half-life is 7 to 11 h.

Q: What about the Tmax ([1]; both sexes, single dose, 5–900 mg dose range, read-out: Median Tmax (time of peak concentrations)) of the same compound?
A: Its Tmax is ≤ 2 h.

Q: What about the half-life ([1]; 5 mg, SAD day 1, 5 mg, n = 5, read-out: T1/2 mean (SD) (converted)) of the same compound?
A: Its half-life is 6.87 h.

Q: What about the half-life ([1]; 15 mg, SAD day 1, 15 mg, n = 6, read-out: T1/2 mean (SD) (converted)) of the same compound?
A: Its half-life is 8.02 h.

Q: And the half-life ([1]; 50 mg, SAD day 1, 50 mg, n = 6, read-out: T1/2 mean (SD) (converted))?
A: Its half-life is 9.7 h.

Q: What about the half-life ([1]; 100 mg, SAD day 1, 100 mg, n = 6, read-out: T1/2 mean (SD) (converted)) of the same compound?
A: The half-life was 10.3 h.

Q: What about the half-life ([1]; 300 mg, SAD day 1, 300 mg, n = 6, read-out: T1/2 mean (SD) (converted)) of the same compound?
A: Its half-life is 10.6 h.

Q: What about the half-life ([1]; 900 mg, SAD day 1, 900 mg, n = 6, read-out: T1/2 mean (SD) (converted)) of the same compound?
A: Its half-life is 10.7 h.

Q: What about the AUC(0-inf) ([1]; SAD day 1, 5 mg, n = 5, read-out: AUC(inf) geometric mean (%CV)) of the same compound?
A: Its AUC(0-inf) is 102 ng·h/mL.

Q: And the AUC(0-t) ([1]; SAD day 1, 5 mg)?
A: The AUC(0-t) was 83.1 ng·h/mL.

Q: What about the Cmax ([1]; SAD day 1, 5 mg) of the same compound?
A: Its Cmax is 9.03 ng/mL.

Q: And the Tmax ([1]; SAD day 1, 5 mg, n = 6, read-out: Tmax median (min, max))?
A: Its Tmax is 2.03 h.

Q: What about the AUC(0-t) ([1]; SAD day 1, 15 mg) of the same compound?
A: Its AUC(0-t) is 369 ng·h/mL.

Q: What about the AUC(0-inf) ([1]; SAD day 1, 15 mg, n = 6, read-out: AUC(inf) geometric mean (%CV)) of the same compound?
A: The AUC(0-inf) was 388 ng·h/mL.

Q: And the Cmax ([1]; SAD day 1, 15 mg)?
A: The Cmax was 36.9 ng/mL.

Q: What about the Tmax ([1]; SAD day 1, 15 mg, n = 6, read-out: Tmax median (min, max)) of the same compound?
A: Its Tmax is 2 h.

Q: And the AUC(0-t) ([1]; SAD day 1, 50 mg)?
A: Its AUC(0-t) is 1560 ng·h/mL.

Q: What about the AUC(0-inf) ([1]; SAD day 1, 50 mg, n = 6, read-out: AUC(inf) geometric mean (%CV)) of the same compound?
A: The AUC(0-inf) was 1590 ng·h/mL.

Q: And the Cmax ([1]; SAD day 1, 50 mg)?
A: Its Cmax is 185 ng/mL.

Q: What about the Tmax ([1]; SAD day 1, 50 mg, n = 6, read-out: Tmax median (min, max)) of the same compound?
A: The Tmax was 1 h.

Q: And the AUC(0-t) ([1]; SAD day 1, 100 mg)?
A: The AUC(0-t) was 3000 ng·h/mL.

Q: And the AUC(0-inf) ([1]; SAD day 1, 100 mg, n = 6, read-out: AUC(inf) geometric mean (%CV))?
A: Its AUC(0-inf) is 3020 ng·h/mL.

Q: And the Cmax ([1]; SAD day 1, 100 mg)?
A: The Cmax was 311 ng/mL.

Q: What about the Tmax ([1]; SAD day 1, 100 mg, n = 6, read-out: Tmax median (min, max)) of the same compound?
A: Its Tmax is 1.5 h.

Q: What about the AUC(0-t) ([1]; SAD day 1, 300 mg) of the same compound?
A: The AUC(0-t) was 11300 ng·h/mL.

Q: What about the AUC(0-inf) ([1]; SAD day 1, 300 mg, n = 6, read-out: AUC(inf) geometric mean (%CV)) of the same compound?
A: The AUC(0-inf) was 11400 ng·h/mL.

Q: And the Cmax ([1]; SAD day 1, 300 mg)?
A: Its Cmax is 1080 ng/mL.

Q: And the Tmax ([1]; SAD day 1, 300 mg, n = 6, read-out: Tmax median (min, max))?
A: The Tmax was 1.02 h.

Q: And the AUC(0-t) ([1]; SAD day 1, 900 mg)?
A: Its AUC(0-t) is 28000 ng·h/mL.

Q: And the AUC(0-inf) ([1]; SAD day 1, 900 mg, n = 6, read-out: AUC(inf) geometric mean (%CV))?
A: Its AUC(0-inf) is 28100 ng·h/mL.

Q: What about the Cmax ([1]; SAD day 1, 900 mg) of the same compound?
A: Its Cmax is 1880 ng/mL.

Q: What about the Tmax ([1]; SAD day 1, 900 mg, n = 6, read-out: Tmax median (min, max)) of the same compound?
A: The Tmax was 2 h.

Q: What about the IC50 (CD69 expression) of the same compound?
A: The IC50 was 90 nM.

Q: And the “Effect on the pharmacokinetics of MTX” value [2]?
A: Its value is “did not affect the pharmacokinetics of MTX”.

Q: What about the “Efficacy against disease endpoints in combination” value [3] of the same compound?
A: The value was “Added benefit against disease endpoints”.
